The nature of the assay: Hair straightening treatment, assessment in words of hair look and permanence. More on the design: species or system human. The procedure:
Tests consisted in dissolving 10 grams of glyoxylic acid in 100 milliliters of water.
In particular, hair was washed with basic pH (7.5-8.5) shampoo, then said glyoxylic acid solution was applied (application can be made with hard bristle brush, spray or in any other way).
Hair was left in contact with the substance for 60 minute time (+/−30 minutes) and then dried with the hairdryer.
Once dried, hair was straightened with hair straightening iron heated at average temperature of approximately 200°C., +/−50° C.
Finally, hair was rinsed again with water or washed again with shampoo and dried.
Each substance was tested in a mixture with such glyoxylic acid solution by adding 10 grams of one of the substances listed in table 2 to 100 milliliters of said solution.
In particular, a hair straightening test was carried out using the formulation of a cosmetic product by INOAR Cosmeticos Ltda of San Paulo, Brazil, known as “Tratamento capillar marroquino”. The product was deprived of its active ingredient for hair straightening.
10 grams of glyoxylic acid were added to 100 milliliters of said cosmetic and, after carrying out the same hair treatment operations illustrated in the foregoing pages, the results were identical to the ones achieved using the same percentage ratio of glyoxylic acid in water.

Data on one molecule can be found in US20170143603A1, “PROCESS FOR SEMI-PERMANENT STRAIGHTENING OF CURLY, FRIZZY OR WAVY HAIR” (KAO CORPORATION, priority 2010, published 2017).

As to `O=CC(=O)O` [glyoxylic acid, Glyoxylic acid], the “hair condition at the end of treatment” value reads like this: (10 grams of glyoxylic acid in 100 milliliters of cosmetic “Tratamento capillar marroquino” deprived of its active ingredient) “permanently shiny, straight, volumeless, and soft to touch”; (10 grams of glyoxylic acid in 100 milliliters of water, 60 minute contact, iron approximately 200°C.) “shiny, straight, volumeless, soft to touch, and especially pleasant”. Besides, the “efficacy of treatment maintained over time” value (washings, rinsings and dryings in normal use conditions of hair shampoo) is “at least six washings, rinsings and dryings”. Also, the “result compared with the other buffering agents of the European list” value (within the process of the invention) is “best results”.
